{
  "source": "ChEMBL document CHEMBL3045414",
  "about": "“Synthesis and evaluation of 2,4,6-trisubstituted pyrimidine derivatives as novel antileishmanial agents” (2013)",
  "data": [
    {"test_system": "Leishmania donovani", "test": "Antileishmanial activity against promastigote stage of Leishmania donovani assessed as parasite growth inhibition at 10 ug/ml after 2 hr by MTT assay relative to control", "type": "functional", "settings": "read-out: GI", "units": {"inhibition of growth at 10 µg/mL": "%"}, "values": [
      {"smiles": "Nc1nc(-c2ccccc2)cc(-c2ccc(-n3cnc4ccccc43)cc2)n1", "inhibition of growth at 10 µg/mL": 41.9},
      {"smiles": "Nc1nc(-c2ccccc2)cc(-c2ccc(-n3ccnc3)cc2)n1", "inhibition of growth at 10 µg/mL": 32.8},
      {"smiles": "Nc1nc(-c2ccc(Br)cc2)cc(-c2ccc(-n3ccnc3)cc2)n1", "inhibition of growth at 10 µg/mL": 24.3},
      {"smiles": "Nc1nc(-c2ccc(Cl)cc2)cc(-c2ccc(-n3ccnc3)cc2)n1", "inhibition of growth at 10 µg/mL": 46.1},
      {"smiles": "Nc1nc(-c2ccc(Cl)cc2)cc(-c2ccc(-n3cnc4ccccc43)cc2)n1", "inhibition of growth at 10 µg/mL": 32.7},
      {"smiles": "Nc1nc(-c2ccc(F)cc2)cc(-c2ccc(-n3cnc4ccccc43)cc2)n1", "inhibition of growth at 10 µg/mL": 29.6},
      {"smiles": "Nc1nc(-c2ccc(Br)cc2)cc(-c2ccc(-n3cnc4ccccc43)cc2)n1", "inhibition of growth at 10 µg/mL": 32.5},
      {"smiles": "Nc1nc(-c2ccc(-n3cnc4ccccc43)cc2)cc(-c2ccc(Cl)cc2Cl)n1", "inhibition of growth at 10 µg/mL": 56.4},
      {"smiles": "COc1ccc(-c2cc(-c3ccc(-n4ccnc4)cc3)nc(N)n2)cc1", "inhibition of growth at 10 µg/mL": 18.1},
      {"smiles": "COc1ccc(-c2cc(-c3ccc(-n4cnc5ccccc54)cc3)nc(N)n2)cc1", "inhibition of growth at 10 µg/mL": 51.2}
    ]}
  ]
}
